C[C@H]1O[C@@H](O[C@H]2[C@@H](O)C[C@H](O[C@H]3[C@@H](O)C[C@H](O[C@H]4CC[C@@]5(C)[C@H](CC[C@@H]6[C@@H]5C[C@@H](O)[C@]5(C)[C@@H](C7=CC(=O)OC7)CC[C@]65O)C4)O[C@@H]3C)O[C@@H]2C)C[C@H](O)[C@@H]1O [digoxin]
bioavailability of digoxin is substantial for a period (from patches of Examples 2-4): at least 24 h
delivery from bioadhesive compositions (in words, Table I): delivered in a sustained fashion

Source: patent US5750136A, “Bioadhesive composition and patch” (priority 1995, dated 1998)
